Measurements as given in US9296778B2, “3′,5′-cyclic phosphate prodrugs for HCV infection” (Idenix Pharmaceuticals, Inc., priority 2012, dated 2016).
Read-outs that look alike come from different tables or passages of the source.

Legend:
[1] = Stability in simulated intestinal fluid; type: in vitro ADME; settings: 100 μM, 2 hours at 37° C., percent of the peak area at time zero
In short: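 Compounds at 100 μM final, in duplicate, kept 2 h at 37° C in USP gastric fluid (pepsin) or intestinal fluid (pancreatin). Quenched with cold acetonitrile, supernatant analysed by C-18 HPLC, UV 252 nm. Remaining compound expressed as percent of time-zero peak area.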

[2] = test system: Zluc cells; experiment: cytotoxicity evaluation (CellTiter-Blue Cell Viability Assay); settings: read-out: HCV Replicon CC50; Zluc cells, CellTiter-Blue
[3] = Stability in mouse blood; type: in vitro ADME; settings: on ice, percent unchanged test compound
In short: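 Test compound at 0.5 μM final in whole blood, held on ice; sampled at 0, 0.5 and 1 hr in triplicate. Samples quenched with acetonitrile containing internal standard and analysed by LC-MS/MS; percent unchanged compound from peak area ratio to internal standard.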

[4] = test system: fresh human hepatocytes; experiment: Release of active metabolite in fresh human hepatocytes; type: in vitro ADME; settings: 10 μM compound; for FHH TP Cmax: fresh human hepatocytes; for FHH TP AUC: fresh human hepatocytes, 6, 24 and 48 hours
In short: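 Overnight-acclimatized hepatocytes (0.8 million cells/well human, 0.5 million mouse) incubated at 37 °C with 10 μM test compound (0.1% DMSO). Sampled at 6, 24, 48 h (human) or 1, 4, 8, 12, 24 h (mouse); cells washed, extracted in cold 70% methanol, intracellular content quantified by LC-MS/MS with internal standard.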

[5] = Stability in fresh human whole blood; type: in vitro ADME; settings: 0.5 μM, percent unchanged test compound
In short: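 Test compound at 0.5 μM was incubated at 37 °C in fresh human K2EDTA whole blood, stored at 2–8 °C and used within 7 days, in triplicate. Samples taken at 0, 0.5, 1 and 2 h were quenched in cold acetonitrile containing internal standard and analysed by LC-MS/MS. Percent unchanged compound was derived from peak-area ratios.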

[6] = Stability in simulated gastric fluid; type: in vitro ADME; settings: 100 μM, 2 hours at 37° C., percent of the peak area at time zero
Experimental: Simulated gastric and intestinal fluids containing pepsin and pancreatin respectively were prepared according to the U.S. Pharmacopoeia USP291 procedure (www.pharmacopeia.cn/v29240/usp29nf24s0_ris1s126.html). Compounds (final concentration 100 μM) were incubated in duplicate in the appropriate fluid for 2 hours at 37° C. The samples were quenched with 200 μl cold acetonitrile, vortexed for 30 seconds and then centrifuged at 16,100 g for 10 min. The supernatants were analyzed by HPLC on a C-18 column with UV detection at 252 nm. The time 0 samples were prepared by adding SGF or SIF fluid to the quenching solvent followed by the test compound. Stability of the compounds was determined by peak area of the test compounds after incubation and calculated as percent of the peak area observed at time zero.

[7] = Stability in liver subcellular fractions (microsomes); type: in vitro ADME, human; settings: 10 μM, 1.0 mg/mL microsomal protein, NADPH, 60 min, percent unchanged test compound
Experimental: Stability of compounds were determined in subcellular fractions (microsomes) of human liver in duplicate for each matrix. Pooled liver microsomal proteins (1.0 mg/mL), suspended in incubation buffer (100 mM potassium phosphate, pH 7.4, 5 mM MgCl2, and 0.1 mM EDTA), were preincubated for 5 min at 37° C. with 10 μM of a test compound from a 10 mM stock solution in DMSO (final DMSO concentration was 0.1%); the reaction was initiated by the addition of NADPH (3 mM final concentration). At specific times (0 and 60 min), 0.1 mL samples were taken and the reaction terminated by the addition of 4 volumes of stop solution (acetonitrile with 500 ng/mL carbutamide as an internal standard). The samples were vortexed for 30 sec and then centrifuged at 16,000 g for 10 min. 100 μL of supernatants were transferred to 96 deep-well plates preloaded with 100 μL distilled water and analyzed after mixing by LC-MS/MS. The MS peak area ratio of the test compounds versus the internal standard was calculated and percent unchanged test compound over 60 minutes was calculated using this ratio.

[8] = test system: HCV genotype 1b replicon; experiment: HCV Replicon Assay; type: cell-based; settings: Zluc cells (Huh-7-derived, HCV genotype 1b replicon, luciferase reporter), 72 hours; read-out: HCV Replicon EC50
In short: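 Zluc Huh-7 cells with HCV genotype 1b replicon and luciferase reporter treated with 5-fold dilutions (100 μM to 0.0000512 μM final) in duplicate, or at 1 and 10 μM. Luminescence read with ONE-glo; EC50 from dose-response fits, or % inhibition at the fixed concentrations.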

[9] = test system: Zluc cells
[10] = test system: genotype 1b HCV replicon; experiment: genotype 1b HCV replicon-bearing Huh-7 cells (Table 5); type: cell-based; settings: Hepatitis C virus
From the text: In vivo Z4 and Z2 appear to be effectively liver-targeted with a high liver:plasma ratio of drug metabolites. Both prodrugs are readily converted to the triphosphate (TP) metabolite in the liver of mice and monkey producing more TP than GS-7977. […] The in vitro antiviral inactivity of Z4 and Z2 is thought to reflect an inability of Huh-7 replicon cells to metabolize the prodrug moiety.

[11] = test system: Huh-7 cells; experiment: Release of active metabolite in Huh-7 cells; type: in vitro ADME, human; settings: Huh-7 cells, AUC0-72
Experimental: Huh-7 cells were plated in 1 mL culture medium (DMEM, containing glucose, L-glutamine and sodium pyruvate, 10% FBS, 100 IU/mL penicillin, 100 μg/mL streptomycin, 2 mM GlutaMAX, 1% MEM non-essential amino acids) at the concentration 0.8, 0.4 and 0.2 million cells per well on 6 well plates for 24, 48 and 72 hr treatment, respectively. Plated cells were incubated overnight at 37° C. in an incubator.
The following morning compounds was diluted to 20 μM from a stock solution in DMSO in fresh culture medium pre-warmed to 37° C. and 1 mL of the solution/well was added to cells. A final medium volume per well was 2.0 mL, Compound concentration in well was 10 μM and final DMSO concentration was 0.1%.
After 24, 48 or 72 hr, the medium was carefully removed and cell monolayers were washed twice with 2 mL ice-cold PBS per well. Following the last wash, all PBS was carefully removed and 1.0 mL of extraction solution (ice-cold 70% methanol) added. The plate was tightly covered with Parafilm, plastic plate cover and Parafilm again and an intracellular content was extracted at −20° C. for 24 hr.
After 24 hr extracts were transferred into polypropylene microfuge tubes and dried on a refrigerated centrivap concentrator. Dry residues were reconstituted in 250 μL of HPLC-grade water and centrifuged at 16,000×g for 10 min. Aliquots (100 μL each) of the supernatants were transferred into a 96 well plate and internal standard (4 ng/mL final concentration) was added as the internal standard (IS) for LC-MS/MS analysis.

[12] = target: T1, cathepsin A (CatA) (Homo sapiens, UniProt P10619); experiment: CatA hydrolysis assay; type: in vitro ADME
T1 construct: purchased R & D Systems (Minneapolis, Minn.)
T1 sequence (P10619 29-326 limits assumed): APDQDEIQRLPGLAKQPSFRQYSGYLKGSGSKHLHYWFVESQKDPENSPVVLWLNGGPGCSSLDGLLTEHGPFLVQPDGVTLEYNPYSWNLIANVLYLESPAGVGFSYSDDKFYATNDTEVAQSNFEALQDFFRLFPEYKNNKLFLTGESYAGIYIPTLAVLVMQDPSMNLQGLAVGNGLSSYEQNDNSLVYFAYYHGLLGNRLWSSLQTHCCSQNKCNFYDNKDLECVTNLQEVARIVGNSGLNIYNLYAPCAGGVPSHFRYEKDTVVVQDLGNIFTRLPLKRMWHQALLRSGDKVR
T1 sequence (P10619 327-480 limits assumed): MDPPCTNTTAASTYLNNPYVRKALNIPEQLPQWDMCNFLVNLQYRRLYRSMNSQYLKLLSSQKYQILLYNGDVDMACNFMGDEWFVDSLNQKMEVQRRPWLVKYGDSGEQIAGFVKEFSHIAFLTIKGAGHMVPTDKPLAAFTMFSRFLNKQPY
Experimental: CatA, cathepsin L (CatL) and CES1 were purchased from R & D Systems (Minneapolis, Minn.). Prior to the enzymatic hydrolysis reactions, CatA was activated according to the manufacturer's instruction. Briefly, CatA (0.05 μg/μL) was incubated with CatL (0.005 μg/μL) for 30 min at 37° C. in 25 mM MES pH 6.0 containing 5 mM DTT. The reaction was stopped by addition of the CatL specific inhibitor E64 (10 μM).
The CatA assay was performed at 37° C. The reaction mixture contained 25 mM MES buffer pH 6.0, 100 mM NaCl, 4 mM DTT and 100 μM of the compound. The reaction was started by addition of the activated CatA enzyme to a final concentration of 0.005 μg/μL. One hundred-μL aliquots were taken after 0.5 min, 3 hrs and 18 hrs of incubation. Reactions were stopped by mixing the sample with an equal volume of ice-cold methanol, and were loaded on a HPLC for analysis.
(§1) Samples were analyzed by HPLC using 5μ C-18, 4.6×250 mm Phenomenex® Columbus column (Phenomenex USA, CA). The mobile phase consisted of buffer A (25 mM potassium phosphate with 5 mM tetrabutylammonium dihydrogen phosphate pH 6.3) and buffer B (100% methanol).

[13] = target: T2, carboxylesterase 1 (CES1) (Homo sapiens, UniProt P23141); experiment: CES1 hydrolysis assay; type: in vitro ADME; settings: for CES1 hydrolysis: 100 μM compound, 37° C.
T2 construct: purchased R & D Systems (Minneapolis, Minn.)
T2 sequence (P23141 18-567): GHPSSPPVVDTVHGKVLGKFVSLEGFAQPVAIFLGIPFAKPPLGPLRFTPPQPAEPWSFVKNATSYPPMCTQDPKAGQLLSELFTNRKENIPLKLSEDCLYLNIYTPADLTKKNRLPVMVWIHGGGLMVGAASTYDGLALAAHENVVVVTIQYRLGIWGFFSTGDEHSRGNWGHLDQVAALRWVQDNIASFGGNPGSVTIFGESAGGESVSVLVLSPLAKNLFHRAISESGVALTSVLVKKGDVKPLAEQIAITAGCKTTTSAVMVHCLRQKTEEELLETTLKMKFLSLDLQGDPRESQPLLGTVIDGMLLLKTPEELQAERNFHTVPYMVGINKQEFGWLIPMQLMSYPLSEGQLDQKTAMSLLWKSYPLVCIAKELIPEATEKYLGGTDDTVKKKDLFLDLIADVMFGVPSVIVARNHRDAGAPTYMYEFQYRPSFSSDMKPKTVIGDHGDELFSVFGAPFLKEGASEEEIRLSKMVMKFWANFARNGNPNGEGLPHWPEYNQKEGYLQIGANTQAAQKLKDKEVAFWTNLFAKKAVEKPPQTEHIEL
Experimental: CES1 assay was performed at 37° C. in the reaction mixture containing 50 mM Tris/HCl buffer pH 7.5 and 100 μM of the compound. Reaction was started by addition of the CES1 to the final concentration 0.01 μg/mL. 100 μL aliquots were taken after 0.5 min, 3 hrs and 21 hrs of the incubation and the reaction was stopped by mixing with 100 μl of the ice-cold methanol prior to HPLC analysis.
as §1

CCOC(=O)COP1(=O)OC[C@H]2O[C@@H](n3cnc4c(OCC)nc(N)nc43)[C@](C)(F)[C@@H]2O1 (single isomer, unassigned; diastereomer 1) [Compound 7 Diastereomer 1]
Stability SIF [1]: 50%
CC50 [2]: > 50000 nM
Stability WB_Mouse (ice; 1 hr) [3]: 1%
FHH TP Cmax [4]: 31 pmol/mill cells
FHH TP AUC [4]: 377 pmol · hr/mill cells
Stability WB_Human (37° C.; 2 hr) [5]: 25%
Stability SGF [6]: 87%
Stability HLM (1 hr) [7]: 0.5%
EC50 [8]: < 250 nM

CCOc1nc(N)nc2c1ncn2C1OC2COP(=O)(OCC(NC(=O)OC)C(C)(C)C)OC2C1(C)F (single isomer, unassigned; diastereomer 1) [Compound 10 Diastereomer 1]
CC50 [9]: > 50000 nM
EC50 [8]: 250 to 1000 nM

CCOc1nc(N)nc2c1ncn2C1OC2COP(=O)(Oc3ccc(CC(NC(=O)OC)C(=O)OC(C)C)cc3)OC2C1(C)F (single isomer, unassigned; diastereomer 1) [Compound 13 Diastereomer 1]
Stability SIF [1]: 72%
CC50 [2]: > 50000 nM
Stability WB_Mouse (ice; 1 hr) [3]: 1%
FHH TP Cmax [4]: 44 pmol/mill cells
FHH TP AUC [4]: 1632 pmol · hr/mill cells
Stability WB_Human (37° C.; 2 hr) [5]: 29%
Stability HLM (1 hr) [7]: 0.4%
EC50 [8]: < 250 nM

CCOc1nc(N)nc2c1ncn2[C@@H]1O[C@@H]2COP(=O)(OCCSSC(C)(C)C)O[C@H]2[C@@]1(C)O (single isomer, unassigned; diastereomer 1) [Compound 23 Diastereomer 1]
CC50 [9]: < 50000 nM
EC50 [8]: < 250 nM

CCOc1nc(N)nc2c1ncn2[C@@H]1O[C@@H]2COP(=O)(OCCSC(=O)C(C)(C)CO)O[C@H]2[C@@]1(C)OC(C)=O (single isomer, unassigned; diastereomer 2) [Compound 16 Diastereomer 2]
CC50 [9]: < 50000 nM
EC50 [8]: < 250 nM

CC(C)OC(=O)[C@H](C)N[P@](=O)(OC[C@H]1O[C@@H](n2ccc(=O)[nH]c2=O)[C@](C)(F)[C@@H]1O)Oc1ccccc1 [GS-7977]
EC50 [10]: 250 nM
Huh-7 AUC0-72 [11]: 63555 pmol * hr/10^6cells
hydrolysis by CatA (in words) [12]: hydrolyzed
CatA hydrolysis ([12]; 100 μM compound, 37° C., 18 h): 100% @ 18 h
CatA cleavage efficiency relative to RP diastereoisomer ([12]; GS-7977 (SP) versus its RP diastereoisomer): 10 times
hydrolysis by CES1 (in words) [13]: hydrolyzed
CES1 hydrolysis ([13]; 3 h): 12%/3 h;
CES1 hydrolysis ([13]; 21 h): 15%/21 h

CC(C)OC(=O)[C@H](C)N[P@@](=O)(OC[C@H]1O[C@@H](n2ccc(=O)[nH]c2=O)[C@](C)(F)[C@@H]1O)Oc1ccccc1 [PSI-7076]
hydrolysis by CatA (in words) [12]: hydrolyzed
hydrolysis by CES1 (in words) [13]: hydrolyzed
